Experimental data: patent US8741931B2, “Kinase inhibitors” (priority 2007, dated 2014)

How the values were obtained:
Format in all cases: biochemical
[1] = target: PKC theta kinase (Homo sapiens, UniProt Q04759); experiment: PKC Theta I (coupled enzyme assay, absorbance at 340 nm); settings: 240 μM ATP, 18 nM PKC theta, absorbance read out
Method: (§1) An assay buffer solution was prepared which consisted of 100 mM HEPES (pH 7.5), 10 mM MgCl2, 25 mM NaCl, 0.1 mM EDTA and 0.01% Brij. […] To 60 μL of this enzyme buffer, in a 384 well plate, was added 2 μL of VRT stock solution in DMSO. The mixture was allowed to equilibrate for 10 mins at 30° C. […] Ki values were calculated from initial rate data by non-linear regression using the Prism software package (Prism 4.0a, Graphpad Software, San Diego, Calif.).

[2] = target: PKC delta kinase (Homo sapiens, UniProt Q05655); experiment: PKC Delta (coupled enzyme assay); settings: 150 μM ATP, 46 nM PKC delta; read-out: Ki PKC delta
Sequence of PKC delta kinase (Q05655 whole entry): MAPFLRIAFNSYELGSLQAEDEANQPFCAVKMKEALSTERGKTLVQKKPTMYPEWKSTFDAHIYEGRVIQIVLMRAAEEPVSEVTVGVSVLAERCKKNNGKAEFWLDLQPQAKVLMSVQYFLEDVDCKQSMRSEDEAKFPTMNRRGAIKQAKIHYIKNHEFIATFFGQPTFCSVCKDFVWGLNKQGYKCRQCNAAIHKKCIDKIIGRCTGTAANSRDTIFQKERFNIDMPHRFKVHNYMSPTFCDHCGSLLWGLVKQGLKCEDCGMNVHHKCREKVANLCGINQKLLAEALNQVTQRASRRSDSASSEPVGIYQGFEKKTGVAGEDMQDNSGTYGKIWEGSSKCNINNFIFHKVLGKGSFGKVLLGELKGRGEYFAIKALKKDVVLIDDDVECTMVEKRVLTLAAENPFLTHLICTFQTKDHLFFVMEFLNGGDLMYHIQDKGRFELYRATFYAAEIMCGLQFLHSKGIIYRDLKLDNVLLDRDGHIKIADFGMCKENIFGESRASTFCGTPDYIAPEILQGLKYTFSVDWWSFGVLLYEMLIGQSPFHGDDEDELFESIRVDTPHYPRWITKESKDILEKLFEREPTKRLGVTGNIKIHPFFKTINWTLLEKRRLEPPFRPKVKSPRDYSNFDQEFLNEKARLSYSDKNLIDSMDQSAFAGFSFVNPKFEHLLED
Method: as §1, with “To 16” for “To 60”, “added 1” for “added 2”

[3] = target: PKC alpha kinase (Homo sapiens, UniProt P17252); experiment: PKC Alpha (coupled enzyme assay); settings: 130 μM ATP, 4.5 nM PKC alpha
Method: as §1, with “mM EDTA, 100 μM CaCl2” for “mM EDTA”, “To 16” for “To 60”, “added 1” for “added 2”

Sequence of PKC theta kinase (Q04759 whole entry): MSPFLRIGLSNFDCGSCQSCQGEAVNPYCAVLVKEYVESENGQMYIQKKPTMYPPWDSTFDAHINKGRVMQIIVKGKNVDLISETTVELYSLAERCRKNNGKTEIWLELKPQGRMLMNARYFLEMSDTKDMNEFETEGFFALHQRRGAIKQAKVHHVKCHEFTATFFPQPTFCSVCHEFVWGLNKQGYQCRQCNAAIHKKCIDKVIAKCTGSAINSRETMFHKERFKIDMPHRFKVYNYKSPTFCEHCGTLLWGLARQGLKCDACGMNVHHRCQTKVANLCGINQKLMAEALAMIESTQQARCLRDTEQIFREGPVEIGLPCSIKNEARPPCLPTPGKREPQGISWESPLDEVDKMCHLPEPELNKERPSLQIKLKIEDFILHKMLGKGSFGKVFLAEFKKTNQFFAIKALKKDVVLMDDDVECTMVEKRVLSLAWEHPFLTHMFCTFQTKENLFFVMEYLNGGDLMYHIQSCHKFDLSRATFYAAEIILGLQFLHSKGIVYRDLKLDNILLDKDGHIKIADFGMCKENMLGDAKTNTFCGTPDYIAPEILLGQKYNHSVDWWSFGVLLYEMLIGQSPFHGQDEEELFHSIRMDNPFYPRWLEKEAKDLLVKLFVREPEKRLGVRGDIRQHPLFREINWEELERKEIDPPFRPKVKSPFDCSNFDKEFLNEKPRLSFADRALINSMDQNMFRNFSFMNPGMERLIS

| Structure (SMILES) | Ki [1] [nM] | Ki [2] [nM] | Ki [3] [nM] |
| --- | --- | --- | --- |
| N#CCC(=O)N1CCCN(c2cccc(C(=O)c3cccnc3N)n2)CC1 [compound 22] | 500 to 2800 |  |  |
| CC(C)(C)CC(=O)N1CCCN(c2cccc(C(=O)c3cccnc3N)n2)CC1 [compound 26] | 500 to 2800 |  |  |
| Nc1ncccc1C(=O)c1cccc(N2CCCN(C(=O)Cc3ccccc3Cl)CC2)n1 [compound 29] | 500 to 2800 |  |  |
| Nc1ncc(Br)cc1C(=O)c1cccc(N2CCCN(C(=O)Cc3ccccc3)CC2)n1 [compound 72] | 500 to 2800 |  |  |
| CC(C)(C)C(=O)N1CCCN(c2cccc(C(=O)c3cc(Br)cnc3N)n2)CC1 [compound 73] | 500 to 2800 |  |  |
| Cc1ccc(CC(=O)N2CCCN(c3cccc(C(=O)c4cc(Br)cnc4N)n3)CC2)cc1 [compound 74] | 500 to 2800 |  |  |
| Nc1ncccc1C(=O)c1cccc(N2CCCN(C(=O)Cc3cccc(O)c3)CC2)n1 [compound 77] | 500 to 2800 |  |  |
| CC(C)(C)N1CCN(c2cccc(C(=O)c3cccnc3N)n2)CC1 [compound 88] | 500 to 2800 |  |  |
| Nc1ncccc1C(=O)c1cccc(N2CCCN(C(=O)c3cccs3)CC2)n1 [compound 90] | 500 to 2800 | > 2800 |  |
| Cc1ccoc1C(=O)N1CCCN(c2cccc(C(=O)c3cccnc3N)n2)CC1 [compound 91] | 500 to 2800 |  |  |
| Nc1ncc(Br)cc1C(=O)c1cccc(N2CCCN(Cc3ccccc3)CC2)n1 [compound 99] | 500 to 2800 |  |  |
| CN1CCC(N2CCN(c3cccc(C(=O)c4cc(Br)cnc4N)n3)CC2)CC1 [compound 101] | 500 to 2800 |  |  |
| CC(C)(C)OC(=O)N1CCCN(c2nccc(C(=O)c3cccnc3N)n2)CC1 [compound 110] | 500 to 2800 |  |  |
| Nc1ncc(Br)cc1C(=O)c1cccc(N2CCCN(CCc3ccccc3)CC2)n1 [compound 114] | 500 to 2800 |  |  |
| CC(C)(C)OC(=O)NC1CCN(c2cccc(C(=O)c3cc(Br)cnc3N)n2)CC1 [compound 135] | 500 to 2800 |  |  |
| CN(C)C1CCN(c2cccc(C(=O)c3cccnc3N)n2)CC1 [compound 137] | 500 to 2800 |  |  |
| Cc1ccsc1CN1CCCN(c2cccc(C(=O)c3cc(Br)cnc3N)n2)CC1 [compound 139] | 500 to 2800 |  |  |
| Nc1ncccc1C(=O)c1nc(NCCO)ccc1C(F)(F)F [compound 423] | 500 to 2800 | > 2800 | > 2800 |
| CC(C)C[C@H]1CN(c2cc(C(=O)c3cccnc3N)c(-c3ccco3)cn2)CCN1 [compound 428] | 500 to 2800 | > 2800 | > 2800 |

| Structure (SMILES) | Ki [1] [nM] | Ki [2] [nM] | Ki [3] [nM] |
| --- | --- | --- | --- |
| CC(Nc1ccc(C(F)(F)F)c(C(=O)c2cccnc2N)n1)[C@@H](O)c1ccccc1 (stereo partly drawn) [compound 430] | 500 to 2800 | > 2800 | > 2800 |
| Nc1ncccc1C(=O)c1nc(OCC2(N)CCCC2)ccc1C(F)(F)F [compound 438] | 500 to 2800 | 500 to 2800 | > 2800 |
| CC(C)[C@H]1CN(c2ccc(C(F)(F)F)c(C(=O)c3cccnc3N)n2)C[C@@H](c2ccccc2)N1 [compound 449] | 500 to 2800 | > 2800 | > 2800 |
| CC(C)C1OC(=O)N2CCN(c3ccc(C(F)(F)F)c(C(=O)c4cccnc4N)n3)CC12 (stereo not drawn) [compound 453] | 500 to 2800 | > 2800 | > 2800 |
| CC#Cc1ccc(N2CCN[C@H](c3ccccc3)C2)nc1C(=O)c1cccnc1N [compound 465] |  | 50 to 500 | 500 to 2800 |
| CC(C)C[C@H]1CN(c2ccc(C#CC(C)(C)O)c(C(=O)c3cccnc3N)n2)CCN1 [compound 467] | 500 to 2800 | > 2800 | > 2800 |
| Cc1ccc(-c2ccc(N3CCNC(c4ccccc4)C3)nc2C(=O)c2cccnc2N)o1 (stereo not drawn) [compound 469] |  | 50 to 500 | 500 to 2800 |
| Cc1ccc(-c2ccc(N3CCNCC3)nc2C(=O)c2cccnc2N)o1 [compound 470] |  | 50 to 500 | > 2800 |
| CC[C@@H]1CN(c2ccc(C(F)(F)F)c(C(=O)c3cccnc3N)n2)C[C@H](C(C)C)N1 [compound 472] | 500 to 2800 | > 2800 | > 2800 |
| Nc1ncccc1C(=O)c1nc(N2CCNC(C(F)(F)F)C2)ccc1C(F)(F)F (stereo not drawn) [compound 477] |  | 50 to 500 | > 2800 |
| CCC[C@H]1CN(c2ccc(C(F)(F)F)c(C(=O)c3cccnc3N)n2)C[C@@H](c2ccccc2)N1 [compound 481] | 500 to 2800 | > 2800 | > 2800 |
| CC(C)C[C@H]1CN(c2ccc(C(F)(F)F)c(C(=O)c3cccnc3N)n2)C[C@H](C)N1 [compound 483] |  | 500 to 2800 | 500 to 2800 |
| C=Cc1cnc(N)c(C(=O)c2nc(N3CCN[C@@H](CC(C)C)C3)ccc2C(F)(F)F)c1 [compound 487] |  | 50 to 500 | < 50 |
| CC[C@H]1CN(c2ccc(C(F)(F)F)c(C(=O)c3cccnc3N)n2)C[C@H](CC(C)C)N1 [compound 489] | 500 to 2800 | 500 to 2800 | > 2800 |
| Nc1ncccc1C(=O)c1nc(N2CCNC(CC(F)(F)F)C2)ccc1C(F)(F)F (stereo not drawn) [compound 491] |  | 500 to 2800 | > 2800 |
| CCC[C@H]1CN(c2ccc(C(F)(F)F)c(C(=O)c3cccnc3N)n2)C[C@H](CC(C)C)N1 [compound 493] | 500 to 2800 | 500 to 2800 | > 2800 |
| Nc1ncc(Cl)cc1C(=O)c1nc(N2CCNCC2)ccc1C(F)(F)F [compound 495] |  | 50 to 500 | < 50 |
| C=C(F)c1ccc(N2CCN[C@@H](CC(C)(C)F)C2)nc1C(=O)c1cccnc1N [compound 506] |  | 50 to 500 | 500 to 2800 |
